Experimental data: patent publication US7041785B1, “B1-bradykinin receptor antagonists and use thereof” (Université de Sherbrooke, priority 1996, dated 2006)
Non-standard residues stand in square brackets, D forms with d. Residues, ends and D or L forms follow the SMILES beside them. d2Nal = N[C@H](Cc1ccc2ccccc2c1)C(=O)O; dTic = O=C(O)[C@H]1Cc2ccccc2CN1; Sar = CNCC(=O)O

Experiments:
B2 receptor = molecular target: T1, B2 receptor (Oryctolagus cuniculus, UniProt Q28642); conditions: vs BK; captopril 1 μmol/L; Inactive = no detectable antagonistic effect at ≦ 10 μg/ml
T1 sequence (Q28642 1-367): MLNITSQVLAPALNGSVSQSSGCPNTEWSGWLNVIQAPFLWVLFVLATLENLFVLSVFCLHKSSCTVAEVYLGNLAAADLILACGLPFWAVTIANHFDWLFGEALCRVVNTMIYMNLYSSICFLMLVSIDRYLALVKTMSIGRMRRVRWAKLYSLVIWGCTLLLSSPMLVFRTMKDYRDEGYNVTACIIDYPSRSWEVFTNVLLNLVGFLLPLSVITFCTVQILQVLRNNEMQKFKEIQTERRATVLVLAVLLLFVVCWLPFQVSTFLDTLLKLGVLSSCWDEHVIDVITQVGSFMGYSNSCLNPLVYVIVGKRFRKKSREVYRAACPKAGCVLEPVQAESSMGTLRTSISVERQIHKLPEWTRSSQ

human B1 receptor = molecular target: T2, human B1 receptor (Homo sapiens, UniProt P46663); experiment: cell-based
T2 sequence (P46663 1-353): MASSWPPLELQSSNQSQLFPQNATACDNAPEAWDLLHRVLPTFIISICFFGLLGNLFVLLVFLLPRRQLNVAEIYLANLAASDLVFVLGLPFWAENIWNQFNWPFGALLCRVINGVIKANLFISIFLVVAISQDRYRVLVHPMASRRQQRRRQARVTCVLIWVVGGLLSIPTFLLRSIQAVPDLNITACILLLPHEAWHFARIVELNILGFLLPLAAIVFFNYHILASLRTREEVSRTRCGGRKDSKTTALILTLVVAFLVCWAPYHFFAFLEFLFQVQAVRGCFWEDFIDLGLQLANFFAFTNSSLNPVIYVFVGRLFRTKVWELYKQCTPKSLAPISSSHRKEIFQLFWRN
Outline: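 Isolated rabbit jugular vein (captopril 1 μmol/L), guinea pig ileum, endothelium-free rabbit aorta and human umbilical vein, in Krebs at 37 °C, with isometric tension recorded. Agonism was tested at 10 μg/mL.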

Row | Compound | Rb.J.V. pA2 (B2 receptor) | Kb (human B1 receptor) [nM]
1 | CNCC(=O)N[C@@H](CCCNC(=N)N)C(=O)N1CCC[C@H]1C(=O)N1CCC[C@H]1C(=O)NCC(=O)N[C@@H](Cc1ccccc1)C(=O)N[C@@H](CO)C(=O)N1Cc2ccccc2C[C@@H]1C(=O)N[C@@H](CC(C)C)C(=O)O [Compound 9, Sar(D-Tic^7, Leu^8)desArg^9BK] (H-[Sar]RPPGFS[dTic]L-OH; N-terminus and C-terminus assumed) | Inactive | –
2 | CC[C@H](C)[C@H](NC(=O)[C@@H](Cc1ccc2ccccc2c1)NC(=O)[C@H](CO)NC(=O)[C@H](Cc1ccccc1)NC(=O)CNC(=O)[C@@H]1CCCN1C(=O)[C@@H]1CCCN1C(=O)[C@H](CCCN=C(N)N)NC(=O)[C@H](CCCCN)NC(C)=O)C(=O)O [Compound 19, AcLys(D-βNal^7, Ile^8)desArg^9BK] (Ac-KRPPGFS[d2Nal]I-OH) | – | 3.16
3 | CC(=O)N[C@@H](Cc1ccc(O)cc1)C(=O)NCCCCCC(=O)N[C@@H](CCCCN)C(=O)N[C@@H](CCCNC(=N)N)C(=O)N1CCC[C@H]1C(=O)N1CCC[C@H]1C(=O)NCC(=O)N[C@@H](Cc1ccccc1)C(=O)N[C@@H](CO)C(=O)N1CCC[C@H]1C(=O)N[C@@H](CC(C)C)C(=O)O [Compound 27, AcTyrεAhxLys(Leu^8)desArg^9BK] | Inactive | –
4 | CNCC(=O)N[C@@H](Cc1ccc(O)cc1)C(=O)NCCCCCC(=O)N[C@@H](CCCCN)C(=O)N[C@@H](CCCNC(=N)N)C(=O)N1CCC[C@H]1C(=O)N1CCC[C@H]1C(=O)NCC(=O)N[C@@H](Cc1ccccc1)C(=O)N[C@@H](CO)C(=O)N1CCC[C@H]1C(=O)N[C@@H](CC(C)C)C(=O)O [Compound 28, SarTyrεAhxLys(Leu^8)desArg^9BK] | Inactive | –
